Experiments:
[1] = test system: genotype 1a stable HCV replicon (H77) in Huh-7-derived cells; test: Stable subgenomic HCV replicon, genotype 1a, Renilla luciferase; assay type: cell-based; details: Hepatitis C virus, stable replicon genotype 1a, 72 h, read-out: EC50 1A RLUC
Procedure, shortened: (§1)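 Replicons carry hRLuc-neo, EMCV IRES and NS3-NS5B with adaptive mutations: 1a H77 P1496L/S2204I, 1b Con1 E1202G/T1280I/K1846T, 4a ED43 Q1691R/S2204I. EC50 came from non-linear regression versus DMSO and a triple-inhibitor full-inhibition control.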

[2] = test system: NS3/4a protease inhibitor resistant variant R155K in genotype 1a transient HCV replicon; test: Transient-transfected HCV replicon, genotype 1a R155K; assay type: cell-based; details: Hepatitis C virus, 72 h, read-out: EC50 1A R155K
[3] = test system: genotype 1b stable HCV replicon (Con1) in Huh-7-derived cells; test: Stable subgenomic HCV replicon, genotype 1b, Renilla luciferase; assay type: cell-based; details: Hepatitis C virus, stable replicon genotype 1b, 72 h, read-out: EC50 1B RLUC
Procedure, shortened: as §1

NS3 genotype 3a protease = molecular target: T1, NS3 genotype 3a protease (UniProt Q81258); test: Ki determination, NS3 protease genotype 3a (fluorogenic depsipeptide substrate); assay type: biochemical, hepatitis C virus; details: NS3 protease domain genotype 3a, NS4A peptide
T1 construct: Purified NS3 protease domain (amino acids 1-181) of the genotype 1b and 3a virus were generated as above; fused on or other part: N-terminal hexahistidine tag with an rTEV protease cleavage site (vector p28-N6H-Tev-NS3(181)3)
T1 sequence (Q81258 1033-1663): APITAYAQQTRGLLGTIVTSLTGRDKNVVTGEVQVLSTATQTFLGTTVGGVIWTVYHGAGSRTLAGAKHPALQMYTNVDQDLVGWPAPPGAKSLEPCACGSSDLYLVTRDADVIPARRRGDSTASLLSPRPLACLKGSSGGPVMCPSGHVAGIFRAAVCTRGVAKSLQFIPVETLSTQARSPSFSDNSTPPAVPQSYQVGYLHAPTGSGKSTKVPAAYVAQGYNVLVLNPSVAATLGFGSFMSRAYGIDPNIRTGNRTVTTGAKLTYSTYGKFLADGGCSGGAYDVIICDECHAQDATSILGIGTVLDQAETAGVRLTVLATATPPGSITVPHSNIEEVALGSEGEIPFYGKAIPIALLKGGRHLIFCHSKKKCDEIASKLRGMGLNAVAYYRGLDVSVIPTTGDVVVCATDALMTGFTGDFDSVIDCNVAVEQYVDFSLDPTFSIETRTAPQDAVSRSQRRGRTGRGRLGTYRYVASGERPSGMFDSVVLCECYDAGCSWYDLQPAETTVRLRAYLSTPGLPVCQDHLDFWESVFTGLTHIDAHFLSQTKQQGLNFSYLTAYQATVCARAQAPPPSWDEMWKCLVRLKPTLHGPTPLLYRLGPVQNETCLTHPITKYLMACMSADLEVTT
Procedure, shortened: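 NS3 protease domain (aa 1-181), 50 pM (1b) or 200 pM (3a), with 20 μM NS4A peptide, pre-incubated 1 h with inhibitor (100 nM–5 pM); 4 μM (1b) or 2 μM (3a) FRET depsipeptide substrate, room temperature, pH-unspecified HEPES buffer with 40% glycerol, 10% DMSO. Steady-state rates at 90–120 min (ex 340/em 490); Morrison fit gave Ki^app, corrected to Ki via substrate/Km.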

[4] = test system: genotype 1a (H77) wild-type transient HCV replicon in Huh-7-derived cells; test: Transient-transfected HCV replicon, genotype 1a wild type; assay type: cell-based; details: Hepatitis C virus; transient-transfected replicon genotype 1a wild type, 72 h; read-out: EC50 1A WT

Compound	EC50 [1]	EC50 [2]	EC50 [3]	Ki (NS3 genotype 3a protease)	EC50 [4]
CC(C)(C)[C@@H]1NC(=O)O[C@@H]2C[C@@H]3C[C@@H]3[C@H]2CC/C=C/C(F)(F)c2nc3ccc(C#N)cc3nc2O[C@@H]2C[C@@H](C(=O)N[C@]3(C(=O)NS(=O)(=O)C4(C)CC4)C[C@H]3C(F)F)N(C2)C1=O [Example 13, (1aS,2aR,6S,9S,11R,20E,23aR,23bS)-6-tert-butyl-15-cyano-N-[(1R,2R)-2-(difluoromethyl)-1-{[(1-methylcyclopropyl)sulfonyl]carbamoyl}cyclopropyl]-19,19-difluoro-4,7-dioxo-1a,2,2a,4,5,6,7,10,11,19,22,23,23a,23b-tetradecahydro-1H,9H-8,11-methanocyclopropa[4′,5′]cyclopenta[1′,2′18,19][1,10,3,6]dioxadiazacyclononadecino[11,12-b]quinoxaline-9-carboxamide]	3.4 nM	2 nM	3 nM	0.03 nM	2.8 nM
CC(C)(C)[C@@H]1NC(=O)O[C@@H]2C[C@@H]3C[C@@H]3[C@H]2CCCCC(F)(F)c2nc3ccc(C#N)cc3nc2O[C@@H]2C[C@@H](C(=O)N[C@]3(C(=O)NS(=O)(=O)C4(C)CC4)C[C@H]3C(F)F)N(C2)C1=O [Example 14, (1aS,2aR,6S,9S,11R,23aR,23bS)-6-tert-butyl-15-cyano-N-[(1R,2R)-2-(difluoromethyl)-1-{[(1-methylcyclopropyl)sulfonyl]carbamoyl}cyclopropyl]-19,19-difluoro-4,7-dioxo-1a,2,2a,4,5,6,7,10,11,19,20,21,22,23,23a,23b-hexadecahydro-1H,9H-8,11-methanocyclopropa[4′,5′]cyclopenta [1′,2′:18,19][1,10,3,6]dioxadiazacyclononadecino[11,12-b]quinoxaline-9-carboxamide]	1.4 nM	0.69 nM	1.1 nM	0.01 nM	0.9 nM
CC(C)(C)[C@@H]1NC(=O)O[C@@H]2C[C@@H]3C[C@@H]3[C@H]2CCCCC(F)(F)c2nc3ccc(OC(F)F)cc3nc2O[C@@H]2C[C@@H](C(=O)N[C@]3(C(=O)NS(=O)(=O)C4CC4)C[C@H]3C(F)F)N(C2)C1=O [Example 16, (1aS,2aR,6S,9S,11R,23aR,23bS)-6-tert-butyl-N-[(1R,2R)-1-[(cyclopropylsulfonyl)carbamoyl]-2-(difluoromethyl)cyclopropyl]-15-(difluoromethoxy)-19,19-difluoro-4,7-dioxo-1a,2,2a,4,5,6,7,10,11,19,20,21,22,23,23a,23b-hexadecahydro-1H,9H-8,11-methanocyclopropa[4′,5′]cyclopenta [1′,2′:18,19][1,10,3,6]dioxadiazacyclononadecino[11,12-b]quinoxaline-9-carboxamide]	3.8 nM	2 nM	4.2 nM	0.13 nM	1.8 nM
CC(C)(C)[C@@H]1NC(=O)O[C@@H]2C[C@@H]3C[C@@H]3[C@H]2CCCCC(F)(F)c2nc3ccccc3nc2O[C@@H]2C[C@@H](C(=O)N[C@]3(C(=O)NS(=O)(=O)C4(C)CC4)C[C@H]3C(F)F)N(C2)C1=O [Example 17]	5.8 nM	2.9 nM	4.7 nM	0.02 nM	3.3 nM
CC(C)(C)[C@@H]1NC(=O)O[C@@H]2C[C@@H]3C[C@@H]3[C@H]2CCCCC(F)(F)c2nc3ccccc3nc2O[C@@H]2C[C@@H](C(=O)N[C@]3(C(=O)NS(=O)(=O)C4CC4)C[C@H]3C(F)F)N(C2)C1=O [Example 18]	4.8 nM	2.6 nM	4.1 nM	0.02 nM	3.6 nM
CC(C)(C)[C@@H]1NC(=O)O[C@@H]2C[C@@H]3C[C@@H]3[C@H]2CCCCCc2nc3ccc(Cl)cc3nc2O[C@@H]2C[C@@H](C(=O)N[C@]3(C(=O)NS(=O)(=O)C4CC4)C[C@H]3C(F)F)N(C2)C1=O [Example 19, (1aS,2aR,6S,9S,11R,23aR,23bS)-6-tert-butyl-15-chloro-N-[(1R,2R)-1-[(cyclopropylsulfonyl)carbamoyl]-2-(difluoromethyl)cyclopropyl]-4,7-dioxo-1a,2,2a,4,5,6,7,10,11,19,20,21,22,23,23a, 23b-hexadecahydro-1H,9H-8,11-methanocyclopropa[4′,5′]cyclopenta[1′,2′:18,19][1,10,3,6]dioxadiazacyclononadecino[11,12-b]quinoxaline-9-carboxamide]	1.4 nM	1.9 nM	1.3 nM	0.06 nM	1.3 nM
COc1ccc2nc3c(nc2c1)O[C@@H]1C[C@@H](C(=O)N[C@]2(C(=O)NS(=O)(=O)C4(C)CC4)C[C@H]2CC(F)F)N(C1)C(=O)[C@H](C(C)(C)C)NC(=O)O[C@@H]1C[C@@H]2C[C@@H]2[C@H]1CCCCC3(F)F [Example 20, (1aS,2aR,6S,9S,11R,23aR,23bS)-6-tert-butyl-N-[(1R,2S)-2-(2,2-difluoroethyl)-1-{[(1-methylcyclopropyl)sulfonyl]carbamoyl}cyclopropyl]-19,19-difluoro-15-methoxy-4,7-dioxo-1a,2,2a,4,5,6,7,10,11,19,20,21,22,23,23a,23b-hexadecahydro-1H,9H-8,11-methanocyclopropa[4′,5′]cyclopenta[1′,2′:18,19][1,10,3,6]dioxadiazacyclononadecino[11,12-b]quinoxaline-9-carboxamide]	6 nM	5 nM	5.9 nM	0.07 nM	5.2 nM
COc1ccc2cc3c(nc2c1)O[C@@H]1C[C@@H](C(=O)N[C@]2(C(=O)NS(=O)(=O)C4CC4)C[C@H]2C(F)F)N(C1)C(=O)[C@H](C(C)(C)C)NC(=O)O[C@@H]1C[C@@H]2C[C@@H]2[C@H]1CCCCC3 [Example 21, (1aS,2aR,6S,9S,11R,23aR,23bS)-6-tert-butyl-N-[(1R,2R)-1-[(cyclopropylsulfonyl)carbamoyl]-2-(difluoromethyl)cyclopropyl]-15-methoxy-4,7-dioxo-1a,2,2a,4,5,6,7,10,11,19,20,21,22,23,23a,23b-hexadecahydro-1H,9H-8,11-methanocyclopropa[4′,5′]cyclopenta[1′,2′:18,19][1,10,3,6]dioxadiazacyclononadecino[11,12-b]quinoline-9-carboxamide]	1.6 nM	1.4 nM	0.95 nM	0.1 nM	1.5 nM
